Reference: patent US20040122048A1, “Stabilized pharmaceutical composition containing basic excipients” (Wyeth Holdings Corporation, priority 2002, published 2004)

Assays:
[1] = pH of excipient solutions and of crushed EKB-569 tablet slurries; assay type: physicochemical; details: for pH at 0.1% excipient, Excipient Solution: 0.1% solution/suspension of basic excipient; for pH at 0.5% excipient, Excipient Solution: 0.5% solution/suspension of basic excipient; for pH at 1% excipient, Excipient Solution: 1% solution/suspension of basic excipient; for pH at 5% excipient, Excipient Solution: 5% solution/suspension of basic excipient
From the text: The data in Table 3 supported testing improved stability of a pharmaceutical composition by lowering the pH of the pharmaceutical composition. […]

[2] = Solid state stability for EKB-569 drug substance at 56° C./75% RH; assay type: physicochemical; details: for % EKB-569 remaining / Total impurities: drug substance, 56° C./75% RH
Experimental: A study was conducted at 56° C./75% RH for 2 weeks. The samples were filled into 2-ml flame sealed Kimble score-break ampules.

[3] = Stability of EKB-569 solution (degradation rate constant in buffers); assay type: physicochemical; details: for EKB-569 degradation rate constant: 0.2 mg/mL in 0.02 M buffer with 50% Acetonitrile
[4] = Experimental: Compositions of tablets containing 0.5% and 0.1% of these excipients remain the same. Quantity of microcrystalline cellulose was adjusted to allow for the changes in the amounts of basic excipients. Tablets were manufactured using granulation.
Tablets were stored at 40° C./75% RH for 1 month.

Row | SMILES | pH at 0.1% excipient, Excipient Solution [1] | pH at 0.5% excipient, Excipient Solution [1] | pH at 1% excipient, Excipient Solution [1] | pH at 5% excipient, Excipient Solution [1] | also measured
1 | N=C(N)NCCC[C@H](N)C(=O)O [Arginine] | 10.18 | 10.57 | 10.91 | 11.23 | –
2 | O=C([O-])[O-].[Ca+2] [Calcium carbonate] | 8.95 | 8.93 | 9.02 | 9.12 | –
3 | O=C([O-])CN(CCN(CC(=O)[O-])CC(=O)[O-])CC(=O)[O-].[Na+].[Na+].[Na+].[Na+] [EDTA, tetra sodium] | 10.55 | 10.84 | 10.94 | 10.75 | –
4 | CCOc1cc2ncc(C#N)c(Nc3ccc(F)c(Cl)c3)c2cc1NC(=O)C=CCN(C)C [EKB-569, 4-dimethylamino-but-2-enoic acid [4-(3-chloro-4-fluoro-phenylamino)-3-cyano-7-ethoxy-quinolin-6-yl]-amide] | – | – | – | – | stability in the solid state ([2]; 56° C./75% RH for 2 weeks): chemical instability in the solid state; % EKB-569 remaining ([2]; 3 Days): 98.1%; Total impurities ([2]; 3 Days): 1.1%; % EKB-569 remaining ([2]; 7 Days): 97.7%; Total impurities ([2]; 7 Days): 1.68%; % EKB-569 remaining ([2]; 14 Days): 97.1%; Total impurities ([2]; 14 Days): 2.62%; % EKB-569 remaining ([2]; Initial): 99.1%; Total impurities ([2]; Initial): 0.78%; EKB-569 degradation rate constant ([3]; pH 1.2 (HCl), 80° C.): 0.0013 h⁻¹; EKB-569 degradation rate constant ([3]; pH 3.0 (Phoshphate), 80° C.): 0.0003 h⁻¹; EKB-569 degradation rate constant ([3]; pH 5.0 (Acetate), 56° C.): 0.0008 h⁻¹; EKB-569 degradation rate constant ([3]; pH 5.0 (Acetate), 80° C.): 0.0113 h⁻¹; EKB-569 degradation rate constant ([3]; pH 7.4 (Phosphate), 56° C.): 0.003 h⁻¹; EKB-569 degradation rate constant ([3]; pH 7.4 (Phosphate), 80° C.): 0.0235 h⁻¹; EKB-569 degradation rate constant ([3]; pH 9 (Glycine), 56° C.): 0.0031 h⁻¹; EKB-569 degradation rate constant ([3]; pH 9 (Glycine), 80° C.): 0.0229 h⁻¹; stability in solution as a function of pH ([3]; pH range 1.2-9, 56° C. and 80° C.): more stable in acidic solution
5 | O=C([O-])O.[Na+] [Sodium bicarbonate] | 8.69 | 8.56 | 8.34 | 8.18 | –
6 | O=C([O-])[O-].[Na+].[Na+] [Sodium carbonate] | 10.99 | 11.21 | 11.31 | 11.5 | –
7 | NC(CO)(CO)CO [Tromethamine] | 9.98 | 9.99 | 10.51 | 10.87 | –
8 | OC[C@H]1O[C@@H](O[C@H]2[C@H](O)[C@@H](O)C(O)O[C@@H]2CO)[C@H](O)[C@@H](O)[C@H]1O (stereo partly shown) [lactose] | – | – | – | – | effect on stability of EKB-569 pharmaceutical composition [4]: no effect on stability
